This passage reports EC50 and CC50 results from US20190375708A1 (VenatoRx Pharmaceuticals, Inc., priority 2018, published 2019).

Data set [1] deals with HBV replication in HepAD38 cells. Nature of the data set: Anti-HBV replication assay in HepAD38 cells (QPCR of extracellular HBV DNA). The conditions noted are these: Hepatitis B virus, 168 h, 7 days incubation, extracellular HBV DNA by QPCR, read-out: Anti-HBV EC50. Type of data set: cell-based, HBV (genotype D, serotype ayw). The gist of the method:
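Stably transfected HepG2-derived HepAD38 cells express HBV (genotype D, ayw) once tetracycline is withdrawn. Compounds act for 7 days, after which secreted HBV DNA is quantified by QPCR relative to DMSO-treated wells.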

Data set [2] is described as follows: In vitro cytotoxicity assay (MTT cell viability) in HepG2 cells. The conditions noted are these: human. It counts as cell-based, human. The gist of the method:
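Parental HepG2 cells in EMEM + 10% FBS were exposed to compounds (8 half-log dilutions, 30 μM to 1.0 nM) for 7 days at 37 °C, 5% CO2. MTT was then added for 3-4 h, formazan dissolved in DMSO and absorbance read at 492 nm; CC50 came from 4-parameter fits against vehicle controls.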

Broadly, the EC50 is the concentration needed to bring the measured effect to its halfway point. As usually defined, the CC50 is the concentration that lowers cell viability or growth by half. A high value points to better tolerance by the cells. `Cc1c(C(=O)Nc2ccc(F)c(F)c2)c(C)n(C)c1C(=O)C(=O)NC1(C(N)=O)CCCC1` [Example 147, 5-(2-((1-carbamoylcyclopentyl)amino)-2-oxoacetyl)-N-(3,4-difluorophenyl)-1,2,4-trimethyl-1H-pyrrole-3-carboxamide]: the EC50 in data set [1] is below 50 nM. In data set [2], this compound registered a CC50 at 7 days above 30000 nM.

Turning to `Cc1c(C(=O)Nc2ccc(F)c(F)c2)c(C)n(C)c1C(=O)C(=O)NC(C)(C)CO` [Example 148, N-(3,4-difluorophenyl)-5-(2-((1-hydroxy-2-methylpropan-2-yl)amino)-2-oxoacetyl)-1,2,4-trimethyl-1H-pyrrole-3-carboxamide], in data set [1], the EC50 was below 50 nM. The compound further had a CC50 at 7 days in data set [2] above 30000 nM.

Take `Cc1cc(NC(=O)c2c(C)c(C(=O)C(=O)N[C@@H]3CCOC[C@H]3O)n(C)c2C)ccc1F` [Example 149, N-(4-fluoro-3-methylphenyl)-5-(2-(((3S,4R)-3-hydroxytetrahydro-2H-pyran-4-yl)amino)-2-oxoacetyl)-1,2,4-trimethyl-1H-pyrrole-3-carboxamide]: in data set [1], the EC50 was below 50 nM. In data set [2], this compound showed a CC50 at 7 days above 30000 nM.

For `Cc1cc(NC(=O)c2c(C)c(C(=O)C(=O)NCC3(O)CCOCC3)n(C)c2C)ccc1F` [Example 150, N-(4-fluoro-3-methylphenyl)-5-(2-(((4-hydroxytetrahydro-2H-pyran-4-yl)methyl)amino)-2-oxoacetyl)-1,2,4-trimethyl-1H-pyrrole-3-carboxamide], in data set [1], the EC50 is below 50 nM. In data set [2], this compound displayed a CC50 at 7 days above 30000 nM.

Turning to `Cc1cc(NC(=O)c2c(C)c(C(=O)C(=O)N[C@@H]3CC[C@H](O)[C@H]3O)n(C)c2C)ccc1F` [Example 151, 5-(2-(((1R,2S,3S)-2,3-dihydroxycyclopentyl)amino)-2-oxoacetyl)-N-(4-fluoro-3-methylphenyl)-1,2,4-trimethyl-1H-pyrrole-3-carboxamide], the EC50 in data set [1] is below 50 nM. In addition, in data set [2], the CC50 at 7 days was above 30000 nM.

For the compound `Cc1cc(NC(=O)c2c(C)c(C(=O)C(=O)N[C@@H]3CC[C@H](O)[C@@H]3O)n(C)c2C)ccc1F` [Example 152, 5-(2-(((1R,2R,3S)-2,3-dihydroxycyclopentyl)amino)-2-oxoacetyl)-N-(4-fluoro-3-methylphenyl)-1,2,4-trimethyl-1H-pyrrole-3-carboxamide], in data set [1], the EC50 was below 50 nM. Further, the CC50 at 7 days in data set [2] was above 30000 nM.

Regarding `Cc1cc(NC(=O)c2c(C)c(C(=O)C(=O)NC3(c4noc(C(F)F)n4)CCC3)n(C)c2C)ccc1F` [Example 153, 5-(2-((1-(5-(difluoromethyl)-1,2,4-oxadiazol-3-yl)cyclobutyl)amino)-2-oxoacetyl)-N-(4-fluoro-3-methylphenyl)-1,2,4-trimethyl-1H-pyrrole-3-carboxamide], in data set [1], the EC50 is below 50 nM. In data set [2], this compound registered a CC50 at 7 days of 5000 to 30000 nM.

Regarding `Cc1cc(NC(=O)c2c(C)c(C(=O)C(=O)NC(C)(C)c3noc(CN(C)C)n3)n(C)c2C)ccc1F` [Example 154, 5-(2-((2-(5-((dimethylamino)methyl)-1,2,4-oxadiazol-3-yl)propan-2-yl)amino)-2-oxoacetyl)-N-(4-fluoro-3-methylphenyl)-1,2,4-trimethyl-1H-pyrrole-3-carboxamide], in data set [1], the EC50 is below 50 nM. The compound also showed a CC50 at 7 days in data set [2] above 30000 nM.

On to `Cc1noc(C2(NC(=O)C(=O)c3c(C)c(C(=O)Nc4ccc(F)c(C)c4)c(C)n3C)CC2)n1` [Example 155, N-(4-fluoro-3-methylphenyl)-1,2,4-trimethyl-5-(2-((1-(3-methyl-1,2,4-oxxadiazol-5-yl)cyclopropyl)amino)-2-oxoacetyl)-1H-pyrrole-3-carboxamide], for which, in data set [1], the EC50 is below 50 nM. Also, the 50% cytotoxic concentration (CC50) at 7 days in data set [2] was above 30000 nM.

In the case of `Cc1cc(NC(=O)c2c(C)c(C(=O)C(=O)NOC(C)(C)CO)n(C)c2C)ccc1F` [Example 156, N-(4-fluoro-3-methylphenyl)-5-(2-(((1-hydroxy-2-methylpropan-2-yl)oxy)amino)-2-oxoacetyl)-1,2,4-trimethyl-1H-pyrrole-3-carboxamide], in data set [1], the EC50 is below 50 nM. Also, the CC50 at 7 days in data set [2] is above 30000 nM.

On to `Cc1cc(NC(=O)c2c(C)c(C(=O)C(=O)NOCC(F)(F)F)n(C)c2C)ccc1F` [Example 157, N-(4-fluoro-3-methylphenyl)-1,2,4-trimethyl-5-(2-oxo-2-((2,2,2-trifluoroethoxy)amino)acetyl)-1H-pyrrole-3-carboxamide], for which the EC50 in data set [1] fell in the range of 50 to 499 nM. The compound further returned a CC50 at 7 days in data set [2] above 30000 nM.

Regarding `Cc1nc(C2(NC(=O)C(=O)c3c(C)c(C(=O)Nc4ccc(F)c(C)c4)c(C)n3C)CCCC2)no1` [Example 158, N-(4-fluoro-3-methylphenyl)-1,2,4-trimethyl-5-(2-((1-(5-methyl-1,2,4-oxadiazol-3-yl)cyclopentyl)amino)-2-oxoacetyl)-1H-pyrrole--3 carboxamide], the EC50 in data set [1] is below 50 nM. In addition, the CC50 at 7 days in data set [2] is above 30000 nM.

Turning to `Cc1cc(NC(=O)c2c(C)c(C(=O)C(=O)NC3(c4noc(C(F)F)n4)CCC3)n(C)c2C)cnc1F` [Example 159, 5-(2-((1-(5-(difluoromethyl)-1,2,4-oxadiazol-3-yl)cyclobutyl)amino)-2-oxoacetyl)-N-(6-fluoro-5-methylpyridin-3-yl)-1,2,4-trimethyl-1H-pyrrole-3-carboxamide], the EC50 in data set [1] is below 50 nM. In data set [2], this compound gave a CC50 at 7 days above 30000 nM.

As for `Cc1noc(C2(NC(=O)C(=O)c3c(C)c(C(=O)Nc4cnc(F)c(C)c4)c(C)n3C)CC2)n1` [Example 160, N-(6-fluoro-5-methylpyridin-3-yl)-1,2,4-trimethyl-5-(2-((1-(3-methyl-1,2,4-oxadiazol-5-yl)cyclopropyl)amino)-2-oxoacetyl)-1H-pyrrole-3-carboxamide], in data set [1], the EC50 fell in the range of 50 to 499 nM. Moreover, the CC50 at 7 days in data set [2] is above 30000 nM.

Regarding `Cc1cc(NC(=O)c2c(C)c(C(=O)C(=O)NC(C)(C)CO)n(C)c2C)cnc1F` [Example 161, N-(6-fluoro-5-methylpyridin-3-yl)-5-(2-((1-hydroxy-2-methylpropan-2-yl)amino)-2-oxoacetyl)-1,2,4-trimethyl-1H-pyrrole-3-carboxamide], in data set [1], the EC50 is below 50 nM. In data set [2], this compound showed a CC50 at 7 days above 30000 nM.

On to `Cc1cc(NC(=O)c2c(C)c(C(=O)C(=O)N[C@@H]3CCCC[C@H]3O)n(C)c2C)cnc1F` [Example 162, N-(6-fluoro-5-methylpyridin-3-yl)-5-(2-(((1R,2R)-2-hydroxycyclohexyl)amino)-2-oxoacetyl)-1,2,4-trimethyl-1H-pyrrole-3-carboxamide], for which, in data set [1], the EC50 is 50 to 499 nM. This compound also displayed a CC50 at 7 days in data set [2] above 30000 nM.

`Cc1cc(NC(=O)c2c(C)c(C(=O)C(=O)NC3(C(F)(F)F)CCOCC3)n(C)c2C)cnc1F` [Example 163, N-(6-fluoro-5-methylpyridin-3-yl)-1,2,4-trimethyl-5-(2-oxo-2-((4-(trifluoromethyl)tetrahydro-2H-pyran-4-yl)amino)acetyl)-1H-pyrrole-3-carboxamide]: the EC50 in data set [1] is above 1000 nM. Besides, the CC50 at 7 days in data set [2] is above 30000 nM.

Take `Cc1cc(NC(=O)c2c(C)c(C(=O)C(=O)N[C@@H]3CCOC[C@H]3O)n(C)c2C)cnc1F` [Example 164, N-(6-fluoro-5-methylpyridin-3-yl)-5-(2-(((3S,4R)-3-hydroxytetrahydro-2H-pyran-4-yl)amino)-2-oxoacetyl)-1,2,4-trimethyl-1H-pyrrole-3-carboxamide]: in data set [1], the EC50 lay within 500 to 1000 nM. The compound also showed a CC50 at 7 days in data set [2] above 30000 nM.
